molecular target: T1, USP28 (His-tagged USP28-FL-mammalian) (Homo sapiens, UniProt Q96RU2); assay: Ubiquitin-Rhodamine 110 Assay for USP28 Activity, Example A-1(a); format: biochemical; conditions: Ubiquitin-Rhodamine 110 assay, format Example A-1(a); read-out: USP28 A-1(a) IC50 range
T1 construct: Expression of USP28 (1-1077)-TEV-6*His (pTT5 vector); made in house; host or cells: Expi293f cells (pTT5 vector)
T1 sequence (Q96RU2 1-1077): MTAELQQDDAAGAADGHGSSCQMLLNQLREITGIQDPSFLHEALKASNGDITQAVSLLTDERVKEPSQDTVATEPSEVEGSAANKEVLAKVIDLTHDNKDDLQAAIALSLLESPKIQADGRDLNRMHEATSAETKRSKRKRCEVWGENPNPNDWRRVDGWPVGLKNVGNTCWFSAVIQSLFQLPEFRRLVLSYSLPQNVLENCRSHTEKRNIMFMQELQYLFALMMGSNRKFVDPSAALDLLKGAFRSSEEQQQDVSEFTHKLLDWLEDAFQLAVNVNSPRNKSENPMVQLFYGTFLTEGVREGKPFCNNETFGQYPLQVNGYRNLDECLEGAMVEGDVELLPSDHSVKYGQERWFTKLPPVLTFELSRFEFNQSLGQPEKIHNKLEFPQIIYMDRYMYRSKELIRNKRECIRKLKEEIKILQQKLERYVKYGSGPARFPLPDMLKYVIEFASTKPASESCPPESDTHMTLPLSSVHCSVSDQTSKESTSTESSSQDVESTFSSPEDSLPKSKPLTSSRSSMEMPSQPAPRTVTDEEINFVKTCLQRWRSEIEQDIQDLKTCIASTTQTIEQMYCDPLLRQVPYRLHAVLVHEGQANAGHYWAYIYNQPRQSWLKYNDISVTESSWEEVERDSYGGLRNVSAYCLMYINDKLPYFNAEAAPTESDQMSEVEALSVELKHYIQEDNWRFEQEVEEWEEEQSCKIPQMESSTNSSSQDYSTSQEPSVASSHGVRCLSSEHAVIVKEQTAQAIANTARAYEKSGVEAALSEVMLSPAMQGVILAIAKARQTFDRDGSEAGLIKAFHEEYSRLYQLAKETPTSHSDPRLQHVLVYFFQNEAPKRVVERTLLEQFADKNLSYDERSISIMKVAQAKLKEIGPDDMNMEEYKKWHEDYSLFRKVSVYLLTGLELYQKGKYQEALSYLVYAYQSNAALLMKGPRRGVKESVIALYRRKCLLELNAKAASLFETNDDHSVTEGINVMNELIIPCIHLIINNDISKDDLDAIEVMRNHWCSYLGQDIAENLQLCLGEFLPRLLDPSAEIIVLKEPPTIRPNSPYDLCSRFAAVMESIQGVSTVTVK
In short: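 Full-length His-tagged human USP28 (1-1077, Expi293f-expressed), […], with 25 nM Ub-Rh110 (<<Km) in pH 8.0 Tris buffer with BME, BGG, Triton X-100. 10-point dilutions (25 μM-1.3 nM), 45 min at room temperature, citric acid stop, fluorescence 485/535 nm; IC50 by 4-parameter fit.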

Compound | IC50
Cc1ccc2c(N)c(C(=O)N[C@@H]3CCc4cc(N5CC6CCC(C5)N6)c(C#N)cc4C3)sc2n1 (single isomer, unassigned) [Example 14-3] | 0.2 to 2 µM
Cc1ccc2c(N)c(C(=O)N[C@H]3CCc4cc(N5CC6CCC(C5)N6)c(C#N)cc4C3)sc2n1 (single isomer, unassigned) [Example 14-4] | 0.001 to 0.05 µM
Cc1ccc2c(N)c(C(=O)N[C@H]3CCc4c(ccc(N5CC6CCC(C5)N6)c4C#N)C3)sc2n1 (single isomer, unassigned) [Example 14-2] | 0.05 to 0.2 µM
Cc1ccc2c(N)c(C(=O)N[C@@H]3CCc4c(ccc(N5CC6CCC(C5)N6)c4C#N)C3)sc2n1 (single isomer, unassigned) [Example 14-1] | 0.001 to 0.05 µM
Cc1cnc2c(N)c(C(=O)N[C@H]3CCc4cc(N5CC6CCC(C5)N6)c(C#N)cc4C3)sc2n1 (single isomer, unassigned) [Example 14-8] | 0.001 to 0.05 µM
Cc1cnc2c(N)c(C(=O)N[C@H]3CCc4c(ccc(N5CC6CCC(C5)N6)c4C#N)C3)sc2n1 (single isomer, unassigned) [Example 14-6] | 0.2 to 2 µM
Cc1cnc2c(N)c(C(=O)N[C@@H]3CCc4cc(N5CC6CCC(C5)N6)c(C#N)cc4C3)sc2n1 (single isomer, unassigned) [Example 14-7] | 0.2 to 2 µM
Cc1cnc2c(N)c(C(=O)N[C@@H]3CCc4c(ccc(N5CC6CCC(C5)N6)c4C#N)C3)sc2n1 (single isomer, unassigned) [Example 14-5] | 0.001 to 0.05 µM

Reference: patent US11524966B1 (Valo Early Discovery, Inc., priority 2017, dated 2022)
